Experimental data: patent US20250145665A1, “MACROCYCLIC PEPTIDES USEFUL AS MODULATORS OF TNF ALPHA” (Bristol-Myers Squibb Company, priority 2023, published 2025)
Where two headings read alike, the source gives them in different places. Starred links: 1 amine or outer side, 2 acyl side, 3 side chain; linkers in the order of their positions; H or OH if unused. Positions of bridges follow the written chain, without caps; N, C: chain ends. Non-standard residues stand in square brackets, D forms with d. Residues, ends and D or L forms follow the SMILES beside them. *: point of attachment. Bip(4'-NHCO-C6H4-3-CH2COOH) = N[C@@H](Cc1ccc(-c2ccc(NC(=O)c3cccc(CC(=O)O)c3)cc2)cc1)C(=O)O; Bip(4'-NHCO-C6H4-4-CH2COOH) = N[C@@H](Cc1ccc(-c2ccc(NC(=O)c3ccc(CC(=O)O)cc3)cc2)cc1)C(=O)O; dArg(ω-(2S)-2,3-diOHpropyl) = N=C(NCCC[C@@H](N)C(=O)O)NC[C@H](O)CO; Bip(4'-NH) = O=C([C@H](Cc1ccc(-c2ccc(N[*:3])cc2)cc1)N[*:1])[*:2]; dArg(ω-(3-HO-benzyl)) = N=C(NCCC[C@@H](N)C(=O)O)NCc1cccc(O)c1; Indazole3carbonyl(1-CH2COOH) = O=C(O)Cn1nc(C(=O)*)c2ccccc21; Bip(4'-COOH) = N[C@@H](Cc1ccc(-c2ccc(C(=O)O)cc2)cc1)C(=O)O; Indole3carbonyl(1-CH2COOH) = O=C(O)Cn1cc(C(=O)*)c2ccccc21; X36 = N=C(NCCC[C@@H](N[*:1])C(=O)[*:2])NCc1cccc(C(=O)O)c1; Ala(imidazol-2-yl) = N[C@@H](Cc1ncc[nH]1)C(=O)O; dArg(ω-Bn) = N=C(NCCC[C@@H](N)C(=O)O)NCc1ccccc1; Ala(morpholin-4-yl) = N[C@@H](CN1CCOCC1)C(=O)O; Benzoyl(3-OCH2COOH) = O=C(O)COc1cccc(C(=O)*)c1; Phe(3-CONH2) = NC(=O)c1cccc(C[C@H](N)C(=O)O)c1; Bip = N[C@@H](Cc1ccc(-c2ccccc2)cc1)C(=O)O; 2Pal = N[C@@H](Cc1ccccn1)C(=O)O; Cha = N[C@@H](CC1CCCCC1)C(=O)O; Sar = CNCC(=O)O

Molecular target: TNFα (Homo sapiens, UniProt P01375)
Sequence (P01375 77-233 limits assumed): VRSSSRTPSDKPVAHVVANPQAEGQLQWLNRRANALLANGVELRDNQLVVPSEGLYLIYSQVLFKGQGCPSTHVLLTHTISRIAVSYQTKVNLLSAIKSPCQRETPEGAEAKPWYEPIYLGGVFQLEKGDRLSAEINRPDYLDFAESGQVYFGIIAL
Test: TNF-Induced HEK-Blue Assay
Assay type: cell-based
[1] = HEK-Blue-CD40L cells, NF-kB-driven secreted alkaline phosphatase reporter, TNFα 0.5 ng/ml, 18 h, read-out: TNF induced HEK-Blue assay IC50 value

Method: TNFα (final concentration 0.5 ng/ml) or CD40L (final concentration 30 ng/ml) in assay buffer [DMEM, 4.5 g/l glucose (Gibco, Cat. 21063-029), 10% FBS (Sigma, F4135), 1% Penicillin-Streptomycin (Gibco, Cat. 15140-122), 1% Anti-Anti (Gibco, Cat. 15240-112) and 2 mM L-glutamine (Gibco, Cat. 25030-081)] was then added to the assay plate. After a 30 minute pre-incubation at 37° C. and 5% CO2, HEK-Blue™-CD40L cells (INVIVOGEN, Cat. Code hkb-cd40) containing a NF-kB-driven secreted alkaline phosphatase reporter gene were seeded into the assay plate at a density of 20,000 cells per well. This plate was then incubated for 18 h at 37° C. and 5% CO2. Secreted alkaline phosphatase expression was measured using QUANTI-Blue™ (INVIVOGEN, Cat. Code rep-qb1) according to manufacturer's specifications and the assay plate was read on a PerkinElmer Envision at 620 nm.
IC50 values were determined after correcting for background [(sample read-mean of low control)/(mean of high control-mean of low control)] where by the low control is DMSO without stimulation and high control is DMSO with stimulation.

Work on CC(C)C[C@@H]1NC(=O)[C@H](Cc2cccc(C(N)=O)c2)NC(=O)[C@H](C(C)C)NC(=O)[C@@H]2CCCN2C(=O)[C@H](C(C)C)NC(=O)[C@@H](CCCNC(=N)NCc2ccccc2)NC(=O)[C@H](CC(=O)O)NC(=O)[C@@H]2CCCN2C(=O)CN(C)C(=O)[C@H](Cc2ccc(-c3ccc(NC(=O)c4cn(CC(=O)O)c5ccccc45)cc3)cc2)NC(=O)[C@H](Cc2ccc(-c3ccccc3)cc2)NC(=O)[C@H](CN2CCOCC2)NC(=O)CSC[C@@H](C(=O)NCC(N)=O)NC1=O [Example 535] ({CH2CO}-[Ala(morpholin-4-yl)][Bip][Bip(4'-NH)](Indole3carbonyl(1-CH2COOH))[Sar]PD[dArg(ω-Bn)]VPV[Phe(3-CONH2)]LCG-NH2; thioether N-13) yielded an IC50 of under 50 nM.
In the case of CC(C)C[C@@H]1NC(=O)[C@H](CCCNC(=N)N)NC(=O)[C@H](C(C)C)NC(=O)[C@@H]2CCCN2C(=O)[C@H](C(C)C)NC(=O)[C@@H](CCCNC(=N)NC[C@H](O)CO)NC(=O)[C@H](CC(=O)O)NC(=O)[C@@H]2CCCN2C(=O)CN(C)C(=O)[C@H](Cc2ccc(-c3ccc(NC(=O)c4cccc(CC(=O)O)c4)cc3)cc2)NC(=O)[C@H](Cc2ccc(-c3ccccc3)cc2)NC(=O)[C@H](CN2CCOCC2)NC(=O)CSC[C@@H](C(=O)NCC(N)=O)NC1=O [Example 537] ({CH2CO}-[Ala(morpholin-4-yl)][Bip][Bip(4'-NHCO-C6H4-3-CH2COOH)][Sar]PD[dArg(ω-(2S)-2,3-diOHpropyl)]VPVRLCG-NH2; thioether N-13), the IC50 [1] is reported as 50 to 200 nM.
Molecule CC(C)C[C@@H]1NC(=O)[C@H](CCCNC(=N)N)NC(=O)[C@H](C(C)C)NC(=O)[C@@H]2CCCN2C(=O)[C@H](C(C)C)NC(=O)[C@@H](CCCNC(=N)NC[C@H](O)CO)NC(=O)[C@H](CC(=O)O)NC(=O)[C@@H]2CCCN2C(=O)CN(C)C(=O)[C@H](Cc2ccc(-c3ccc(NC(=O)c4cccc(OCC(=O)O)c4)cc3)cc2)NC(=O)[C@H](Cc2ccc(-c3ccccc3)cc2)NC(=O)[C@H](CN2CCOCC2)NC(=O)CSC[C@@H](C(=O)NCC(N)=O)NC1=O [Example 538] ({CH2CO}-[Ala(morpholin-4-yl)][Bip][Bip(4'-NH)](Benzoyl(3-OCH2COOH))[Sar]PD[dArg(ω-(2S)-2,3-diOHpropyl)]VPVRLCG-NH2; thioether N-13) has an IC50 [1] of 200 to 2000 nM.
With CC(C)C[C@@H]1NC(=O)[C@H](CCCNC(=N)N)NC(=O)[C@H](C(C)C)NC(=O)[C@@H]2CCCN2C(=O)[C@H](C(C)C)NC(=O)[C@@H](CCCNC(=N)NC[C@H](O)CO)NC(=O)[C@H](CC(=O)O)NC(=O)[C@@H]2CCCN2C(=O)CN(C)C(=O)[C@H](Cc2ccc(-c3ccc(NC(=O)c4cn(CC(=O)O)c5ccccc45)cc3)cc2)NC(=O)[C@H](Cc2ccc(-c3ccccc3)cc2)NC(=O)[C@H](CN2CCOCC2)NC(=O)CSC[C@@H](C(=O)NCC(N)=O)NC1=O [Example 540] ({CH2CO}-[Ala(morpholin-4-yl)][Bip][Bip(4'-NH)](Indole3carbonyl(1-CH2COOH))[Sar]PD[dArg(ω-(2S)-2,3-diOHpropyl)]VPVRLCG-NH2; thioether N-13) the IC50 was under 50 nM.
CC(C)C[C@@H]1NC(=O)[C@H](CCCNC(=N)N)NC(=O)[C@H](C(C)C)NC(=O)[C@@H]2CCCN2C(=O)[C@H](C(C)C)NC(=O)[C@@H](CCCNC(=N)NCc2cccc(C(=O)O)c2)NC(=O)[C@H](CC(=O)O)NC(=O)[C@@H]2CCCN2C(=O)CN(C)C(=O)[C@H](Cc2ccc(-c3ccc(NC(=O)c4cccc(CC(=O)O)c4)cc3)cc2)NC(=O)[C@H](Cc2ccc(-c3ccccc3)cc2)NC(=O)[C@H](CN2CCOCC2)NC(=O)CSC[C@@H](C(=O)NCC(N)=O)NC1=O [Example 543] ({CH2CO}-[Ala(morpholin-4-yl)][Bip][Bip(4'-NHCO-C6H4-3-CH2COOH)][Sar]PD[X36]VPVRLCG-NH2; thioether N-13) gave an IC50 [1] of 200 to 2000 nM.
For CC(C)C[C@@H]1NC(=O)[C@H](CCCNC(=N)N)NC(=O)[C@H](C(C)C)NC(=O)[C@@H]2CCCN2C(=O)[C@H](C(C)C)NC(=O)[C@@H](CCCNC(=N)NCc2cccc(C(=O)O)c2)NC(=O)[C@H](CC(=O)O)NC(=O)[C@@H]2CCCN2C(=O)CN(C)C(=O)[C@H](Cc2ccc(-c3ccc(NC(=O)c4cccc(OCC(=O)O)c4)cc3)cc2)NC(=O)[C@H](Cc2ccc(-c3ccccc3)cc2)NC(=O)[C@H](CN2CCOCC2)NC(=O)CSC[C@@H](C(=O)NCC(N)=O)NC1=O [Example 544] ({CH2CO}-[Ala(morpholin-4-yl)][Bip][Bip(4'-NH)](Benzoyl(3-OCH2COOH))[Sar]PD[X36]VPVRLCG-NH2; thioether N-13), the IC50 [1] was 200 to 2000 nM.
CC(C)C[C@@H]1NC(=O)[C@H](Cc2ccc(O)cc2)NC(=O)[C@H](C(C)C)NC(=O)[C@@H]2CCCN2C(=O)[C@H](C(C)C)NC(=O)[C@@H](CCCNC(=N)NC[C@H](O)CO)NC(=O)[C@H](CC(=O)O)NC(=O)[C@@H]2CCCN2C(=O)CN(C)C(=O)[C@H](Cc2ccc(-c3ccc(NC(=O)c4nn(CC(=O)O)c5ccccc45)cc3)cc2)NC(=O)[C@H](Cc2ccc(-c3ccc(C(=O)O)cc3)cc2)NC(=O)[C@H](CC2CCCCC2)NC(=O)CSC[C@@H](C(=O)NCC(N)=O)NC1=O [Example 545] ({CH2CO}-[Cha][Bip(4'-COOH)][Bip(4'-NH)](Indazole3carbonyl(1-CH2COOH))[Sar]PD[dArg(ω-(2S)-2,3-diOHpropyl)]VPVYLCG-NH2; thioether N-13) showed an IC50 of 50 to 200 nM.
Molecule CC(C)C[C@@H]1NC(=O)[C@H](Cc2cccc(C(N)=O)c2)NC(=O)[C@H](C(C)C)NC(=O)[C@@H]2CCCN2C(=O)[C@H](C(C)C)NC(=O)[C@@H](CCCNC(=N)NC[C@H](O)CO)NC(=O)[C@H](CC(=O)O)NC(=O)[C@H](Cc2ccc(O)cc2)NC(=O)CN(C)C(=O)[C@H](Cc2ccc(-c3ccc(NC(=O)c4nn(CC(=O)O)c5ccccc45)cc3)cc2)NC(=O)[C@H](Cc2ccc(-c3ccccc3)cc2)NC(=O)[C@H](CN2CCOCC2)NC(=O)CSC[C@@H](C(=O)NCC(N)=O)NC1=O [Example 546] ({CH2CO}-[Ala(morpholin-4-yl)][Bip][Bip(4'-NH)](Indazole3carbonyl(1-CH2COOH))[Sar]YD[dArg(ω-(2S)-2,3-diOHpropyl)]VPV[Phe(3-CONH2)]LCG-NH2; thioether N-13) has an IC50 of under 50 nM.
With CC(C)C[C@@H]1NC(=O)[C@H](Cc2cccc(C(N)=O)c2)NC(=O)[C@H](C(C)C)NC(=O)[C@@H]2CCCN2C(=O)[C@H](C(C)C)NC(=O)[C@@H](CCCNC(=N)NC[C@H](O)CO)NC(=O)[C@H](CC(=O)O)NC(=O)[C@H](Cc2ccc(O)cc2)NC(=O)CN(C)C(=O)[C@H](Cc2ccc(-c3ccc(NC(=O)c4cn(CC(=O)O)c5ccccc45)cc3)cc2)NC(=O)[C@H](Cc2ccc(-c3ccccc3)cc2)NC(=O)[C@H](CN2CCOCC2)NC(=O)CSC[C@@H](C(=O)NCC(N)=O)NC1=O [Example 547] ({CH2CO}-[Ala(morpholin-4-yl)][Bip][Bip(4'-NH)](Indole3carbonyl(1-CH2COOH))[Sar]YD[dArg(ω-(2S)-2,3-diOHpropyl)]VPV[Phe(3-CONH2)]LCG-NH2; thioether N-13) the IC50 was under 50 nM.
Work on CC(C)C[C@@H]1NC(=O)[C@H](Cc2cccc(C(N)=O)c2)NC(=O)[C@H](C(C)C)NC(=O)[C@@H]2CCCN2C(=O)[C@H](C(C)C)NC(=O)[C@@H](CCCNC(=N)NC[C@H](O)CO)NC(=O)[C@H](CC(=O)O)NC(=O)[C@H](Cc2ccc(O)cc2)NC(=O)CN(C)C(=O)[C@H](Cc2ccc(-c3ccc(NC(=O)c4ccc(CC(=O)O)cc4)cc3)cc2)NC(=O)[C@H](Cc2ccc(-c3ccccc3)cc2)NC(=O)[C@H](CN2CCOCC2)NC(=O)CSC[C@@H](C(=O)NCC(N)=O)NC1=O [Example 548] ({CH2CO}-[Ala(morpholin-4-yl)][Bip][Bip(4'-NHCO-C6H4-4-CH2COOH)][Sar]YD[dArg(ω-(2S)-2,3-diOHpropyl)]VPV[Phe(3-CONH2)]LCG-NH2; thioether N-13) yielded an IC50 [1] of 50 to 200 nM.
With CC(C)C[C@@H]1NC(=O)[C@H](Cc2cccc(C(N)=O)c2)NC(=O)[C@H](C(C)C)NC(=O)[C@@H]2CCCN2C(=O)[C@H](C(C)C)NC(=O)[C@@H](CCCNC(=N)NC[C@H](O)CO)NC(=O)[C@H](CC(=O)O)NC(=O)[C@H](Cc2ccc(O)cc2)NC(=O)CN(C)C(=O)[C@H](Cc2ccc(-c3ccc(NC(=O)c4cccc(CC(=O)O)c4)cc3)cc2)NC(=O)[C@H](Cc2ccc(-c3ccccc3)cc2)NC(=O)[C@H](CN2CCOCC2)NC(=O)CSC[C@@H](C(=O)NCC(N)=O)NC1=O [Example 549] ({CH2CO}-[Ala(morpholin-4-yl)][Bip][Bip(4'-NHCO-C6H4-3-CH2COOH)][Sar]YD[dArg(ω-(2S)-2,3-diOHpropyl)]VPV[Phe(3-CONH2)]LCG-NH2; thioether N-13) the IC50 [1] was 50 to 200 nM.
For CC(C)C[C@@H]1NC(=O)[C@H](Cc2cccc(C(N)=O)c2)NC(=O)[C@H](C(C)C)NC(=O)[C@@H]2CCCN2C(=O)[C@H](C(C)C)NC(=O)[C@@H](CCCNC(=N)NC[C@H](O)CO)NC(=O)[C@H](CC(=O)O)NC(=O)[C@H](Cc2ccc(O)cc2)NC(=O)CN(C)C(=O)[C@H](Cc2ccc(-c3ccc(NC(=O)c4cccc(OCC(=O)O)c4)cc3)cc2)NC(=O)[C@H](Cc2ccc(-c3ccccc3)cc2)NC(=O)[C@H](CN2CCOCC2)NC(=O)CSC[C@@H](C(=O)NCC(N)=O)NC1=O [Example 550] ({CH2CO}-[Ala(morpholin-4-yl)][Bip][Bip(4'-NH)](Benzoyl(3-OCH2COOH))[Sar]YD[dArg(ω-(2S)-2,3-diOHpropyl)]VPV[Phe(3-CONH2)]LCG-NH2; thioether N-13), the IC50 [1] was 50 to 200 nM.
CC(C)C[C@@H]1NC(=O)[C@H](Cc2ncc[nH]2)NC(=O)[C@H](C(C)C)NC(=O)[C@@H]2CCCN2C(=O)[C@H](C(C)C)NC(=O)[C@@H](CCCNC(=N)NCc2cccc(O)c2)NC(=O)[C@H](CC(=O)O)NC(=O)[C@H](Cc2ccccn2)NC(=O)CN(C)C(=O)[C@H](Cc2ccc(-c3ccc(NC(=O)c4nn(CC(=O)O)c5ccccc45)cc3)cc2)NC(=O)[C@H](Cc2ccc(-c3ccc(C(=O)O)cc3)cc2)NC(=O)[C@H](CC2CCCCC2)NC(=O)CSC[C@@H](C(=O)NCC(N)=O)NC1=O [Example 551] ({CH2CO}-[Cha][Bip(4'-COOH)][Bip(4'-NH)](Indazole3carbonyl(1-CH2COOH))[Sar][2Pal]D[dArg(ω-(3-HO-benzyl))]VPV[Ala(imidazol-2-yl)]LCG-NH2; thioether N-13) gave an IC50 of under 50 nM.
